# According to patent US7335770B2, “Triazine compounds and their analogs, compositions, and methods” (Reddy U5 Therapeutics, Inc., priority 2004, dated 2008):
# Where two headings read alike, the source gives them in different places.
# System: smooth muscle cells (SMC)
# Experiment: anti-proliferation assay (perlecan)
# Format: cell-based
# Conditions: for activity in anti-proliferation assay (Perlecan), in words: using the same activity scale used in Table 3; for IC50: anti-proliferation assay (perlecan)
# Method: The activity scale used in Table 3 as follows (numbers are inclusive): “+++” represents IC50 of less than about 3 μM; “++” represents IC50 of between about 3 and about 7 μM; and “+” represents IC50 of greater than about 7 μM. In addition, compounds, to include compositions thereof, encompassed within the scope of structures Ia-XXIVa, respectively, or listed in Tables 1A and 1E may be likewise employed in this embodiment and/or aspect of the present invention. Further, any hydrogen atoms that are required for any atom to attain its usual valence in a structure presented in Table 3, whether a carbon atom or a heteroatom, should be inferred if it is not specifically indicated.
# In addition to the above compounds, the following compounds and compositions comprising these compounds are active in an anti-proliferation assay (Perlecan). These compounds and compositions comprising these compounds are, among other things, generally useful for treating cardiovascular disorders associated with proliferative activity. Specifically, these compounds include N^2-cycloheptyl-N^4-(3-fluoro-4-methoxyphenyl)-N^6-methyl-N^6-(1-methyl-piperidin-4-yl)-1,3,5-triazine-2,4,6-triamine, and N^2-cycloheptyl-N^4-methyl-N^4-(1-methyl-piperidin-4-yl)-N^6-naphthalen-2-yl-1,3,5-triazine-2,4,6-triamine.
# Methods for identifying the activity and screening for one or more of these compounds or molecules that induce synthesis of proteoglycans such as HSPG (heparan sulfate proteoglycan) are taught in U.S. patent application Ser. No. 10/091,357, which is incorporated herein in its entirety. Assays of effects of compounds in vivo are also taught in the incorporated references and are known to those skilled in the art. In general, methods comprise the addition of such compounds to assays and measurement of HSPG synthesis including, but not limited to, the production of syndecans, glypicans and perlecans, for example, syndecans 1, 2 and 4; and glypican-1. Other assays that can be used to determine the activity of the compounds of the present invention include other methods for measuring the induction of perlecan synthesis. For example, in one assay, perlecan is induced in cells by certain inducers, and the response is measured. Compounds of the present invention are then added to a replicate assay and the effect on perlecan induction is determined. Using such methods, compounds are determined that can either inhibit perlecan, elevate induction of perlecan, or that have no effect at all. Those compounds that are effective as therapeutic agents can then be used in animals, humans or patients with cellular proliferation disease aspects, such as vascular-associated diseases or SMC proliferation pathologies.
# Another assay for determining compounds having SMC effects comprises adding a composition suspected of affecting SMC proliferation to smooth muscle cells in growth medium or serum-free medium. The change in cell proliferation can be measured by methods known to those skilled in the art, such as incorporation of labeled nucleotides into dividing cells' DNA, and compared to the proliferation of cells which are not treated with the compound. Other measurements include directly determining levels of HSPG synthesis by measuring the amount or change in amount of HSPG such as with ELISA for HSPGs, and compared to the amount of HSPG synthesis in untreated cells. Other indirect or direct measurement are contemplated by the present invention and are known to those skilled in the art. For example, such methods include, but are not limited to, measurement of RNA levels, RT-PCR, Northern blotting, Western blotting promoter-based assays to identify compounds that affect one or more proteoglycans and assays for proteoglycan biological activity shown by recombinant proteins, partially purified proteins, or lysates from cells expressing proteoglycans in the presence or absence of compounds of interest.
# [1] = class of IC50, read-out: Activity (note 1)
# [2] = some cells print no unit, read-out: Avg IC-50
SMILES,"activity in anti-proliferation assay (Perlecan), in words",IC50 [1],IC50 [2]
"COc1ccc(Nc2nc(NC3CCCCCC3)nc(Sc3ccccc3)n2)cc1Cl [N-(3-Chloro-4-methoxy-phenyl)-N′-cycloheptyl-6-phenylsulfanyl-[1,3,5]triazine-2,4-diamine]",high activity,–,–
"COc1ccc(Nc2nc(NCC3CCCO3)nc(NC3CCCCCC3)n2)cc1Cl (stereo not shown) [N-(3-Chloro-4-methoxy-phenyl)-N′-cycloheptyl-N″-(tetrahydro-furan-2-ylmethyl)-[1,3,5]triazine-2,4,6-triamine]",high activity,–,–
"COc1ccc(Nc2nc(NC3CCCCCC3)nc(NC3CCNCC3)n2)cc1Cl [N-(3-Chloro-4-methoxy-phenyl)-N′-cycloheptyl-N″-piperidin-4-yl-[1,3,5]triazine-2,4,6-triamine]",high activity,–,–
"CCN1CCCC1CNc1nc(Nc2ccc(OCc3ccccc3)c(Cl)c2)nc(NC2CCCCCC2)n1 (stereo not shown) [N-(4-Benzyloxy-3-chloro-phenyl)-N′-cycloheptyl-N″-(1-ethyl-pyrrolidin-2-ylmethyl)-[1,3,5]triazine-2,4,6-triamine]",high activity,–,–
"CCOc1nc(Nc2ccc(OC)c(F)c2)nc(NC2CCCCCC2)n1 [N-Cycloheptyl-6-ethoxy-N′-(3-fluoro-4-methoxy-phenyl)-[1,3,5]triazine-2,4-diamine]",high activity,–,–
"CCN1CCCC1CNc1nc(Nc2ccc(C)c(F)c2)nc(NC2CCCCCC2)n1 (stereo not shown) [N-Cycloheptyl-N′-(1-ethyl-pyrrolidin-2-ylmethyl)-N″-(3-fluoro-4-methyl-phenyl)-[1,3,5]triazine-2,4,6-triamine]",high activity,–,–
"Cc1ccc(Nc2nc(NC3CCCCCC3)nc(N(C)C3CCN(C)CC3)n2)cc1F [N-Cycloheptyl-N′-(3-fluoro-4-methyl-phenyl)-N″-methyl-N″-(1-methyl-piperidin-4-yl)-[1,3,5]triazine-2,4,6-triamine]",high activity,–,–
"CN1CCC(N(C)c2nc(Nc3cccc(F)c3)nc(NC3CCCCCC3)n2)CC1 [N-Cycloheptyl-N′-(3-fluoro-phenyl)-N″-methyl-N″-(1-methyl-piperidin-4-yl)-[1,3,5]triazine-2,4,6-triamine]",high activity,–,–
"CN1CCC(N(C)c2nc(Nc3cccc([N+](=O)[O-])c3)nc(NC3CCCCCC3)n2)CC1 [N-Cycloheptyl-N′-methyl-N′-(1-methyl-piperidin-4-yl)-N″-(3-nitro-phenyl)-[1,3,5]triazine-2,4,6-triamine]",high activity,–,–
"COc1ccc(Nc2nc(NC3CCCCCC3)nc(N(C)C3CCN(C)CC3)n2)cc1F [N^2-cycloheptyl-N^4-(3-fluoro-4-methoxyphenyl)-N^6-methyl-N^6-(1-methyl-piperidin-4-yl)-1,3,5-triazine-2,4,6-triamine]",medium or moderate activity,–,–
"CN1CCC(N(C)c2nc(Nc3ccc4ccccc4c3)nc(NC3CCCCCC3)n2)CC1 [N^2-cycloheptyl-N^4-methyl-N^4-(1-methyl-piperidin-4-yl)-N^6-naphthalen-2-yl-1,3,5-triazine-2,4,6-triamine]",high activity,–,–
"COc1ccc(Nc2nc(NC3CCCCCC3)nc(OCC3CCCN3C)n2)cc1Cl (stereo not shown) [drawing 575, N-(3-Chloro-4-methoxy-phenyl)-N′-cyclo-heptyl-6-(1-methyl-pyr-rolidin-2-ylmethoxy)-[1,3,5]tri-azine-2,4-diamine]",–,3000 to 7000 nM,5000 nM
"COc1ccc(Nc2nc(NC3CCCCCC3)nc(OC3CCN(C)CC3)n2)cc1Cl [drawing 576, N-(3-Chloro-4-methoxy-phenyl)-N′-cyclo-heptyl-6-(1-methyl-piper-idin-4-yloxy)-[1,3,5]triazine-2,4-di-amine]",–,3000 to 7000 nM,5700 nM
"COc1ccc(Nc2nc(NC3CCCCCC3)nc(OC3CCCN(C(C)=O)C3)n2)cc1Cl (stereo not shown) [drawing 577, 1-{3-[4-(3-Chloro-4-methoxy-phenyl-amino)-6-cyclo-heptylamino-[1,3,5]triazin-2-yl-oxy]-piperidin-1-yl}-ethanone]",–,3000 to 7000 nM,6500 nM
"COc1ccc(Nc2nc(NC3CCCCCC3)nc(OC(C)C)n2)cc1Cl [drawing 578, N-(3-Chloro-4-methoxy-phenyl)-N′-cyclo-heptyl-6-isopropoxy-[1,3,5]tri-azine-2,4-diamine]",–,3000 to 7000 nM,6500 nM
"COc1ccc(Nc2nc(NC3CCCCCC3)nc(Oc3ccc(C#CC(C)(C)O)cc3)n2)cc1Cl [drawing 579, 4-{4-[4-(3-Chloro-4-methoxy-phenyl-amino)-6-cyclo-heptylamino-[1,3,5]triazin-2-yl-oxy]-phenyl}-2-methyl-but-3-yn-2-ol]",–,< 3000 nM,1900 nM
"COc1ccc(Nc2nc(NC3CCCCCC3)nc(Oc3ccccc3C#CC(C)(C)O)n2)cc1Cl [drawing 580, 4-{2-[4-(3-Chloro-4-methoxy-phenyl-amino)-6-cyclo-heptylamino-[1,3,5]triazin-2-yl-oxy]-phenyl}-2-methyl-but-3-yn-2-ol]",–,< 3000 nM,2800 nM
"CCN1CCCC(Oc2nc(Nc3ccc(OC)c(Cl)c3)nc(NC3CCCCCC3)n2)C1 (stereo not shown) [drawing 581, N-(3-Chloro-4-methoxy-phenyl)-N′-cyclo-heptyl-6-(1-ethyl-piper-idin-3-yloxy)-[1,3,5]triazine-2,4-di-amine]",–,3000 to 7000 nM,4200 nM
"COc1ccc(Nc2nc(NC3CCCCCC3)nc(Oc3ccc(C=O)cc3)n2)cc1Cl [drawing 582, 4-[4-(3-Chloro-4-methoxy-phenyl-amino)-6-cyclo-heptylamino-[1,3,5]triazin-2-yl-oxy]-benzaldehyde]",–,3000 to 7000 nM,4500 nM
"COc1ccc(Nc2nc(NC3CCCCCC3)nc(Oc3ccc(/C=N\O)cc3)n2)cc1Cl [drawing 583, 4-[4-(3-Chloro-4-methoxy-phenyl-amino)-6-cyclo-heptylamino-[1,3,5]triazin-2-yl-oxy]-benzaldehyde oxime]",–,< 3000 nM,720 nM
"COc1ccc(Nc2nc(NC(C)C)nc(Oc3ccc(C#CC(C)(C)O)cc3)n2)cc1Cl [drawing 584, 4-{4-[4-(3-Chloro-4-methoxy-phenyl-amino)-6-isopropylamino-[1,3,5]tri-azin-2-yloxy]-phenyl}-2-meth-yl-but-3-yn-2-ol]",–,3000 to 7000 nM,3350 nM
"COc1ccc(Nc2nc(NC3CCCCCC3)nc(OCC3CCCO3)n2)cc1Cl (stereo not shown) [drawing 586, N-(3-Chloro-4-methoxy-phenyl)-N′-cyclo-heptyl-6-(tetrahydro-furan--2-ylmethoxy)-[1,3,5]tri-azine-2,4-diamine]",–,< 3000 nM,1250 nM
"COc1ccc(Nc2nc(NCC3CCCO3)nc(NC3CCCCCC3)n2)cc1Cl (stereo not shown) [drawing 587, N-(3-Chloro-4-methoxy-phenyl)-N′-cyclo-heptyl-N″-(tetrahydro-furan--2-ylmethyl)-[1,3,5]triazine-2,4,6-tri-amine]",–,< 3000 nM,1360 nM
"COc1ccc(Nc2nc(NCCNC(=O)OC(C)(C)C)nc(NC3CCCCCC3)n2)cc1Cl [drawing 588, {2-[4-(3-Chloro-4-methoxy-phenyl-amino)-6-cyclo-heptylamino-[1,3,5]triazin-2-yl-amino]-ethyl}-carbamic acidtert-butyl ester]",–,< 3000 nM,1250 nM
